Reference: patent US11236086B2, “Substituted pyrrolopyridines as inhibitors of activin receptor-like kinase” (BLUEPRINT MEDICINES CORPORATION, priority 2017, dated 2022)

Legend:
[1] = target: T1, ALK2R206H (mutant ALK2, N-terminally tagged with GST) (Homo sapiens, UniProt Q04771, R206H); assay: ALK binding assay (LANTHASCREEN TR-FRET competitive binding, displacement of Kinase Tracer 178); conditions: read-out: Binding Assay (IC50 class)
T1 construct: purchased Carna Bioscience or ThermoFisher 09-148 or PV6232
T1 sequence (Q04771 21-509 R206H): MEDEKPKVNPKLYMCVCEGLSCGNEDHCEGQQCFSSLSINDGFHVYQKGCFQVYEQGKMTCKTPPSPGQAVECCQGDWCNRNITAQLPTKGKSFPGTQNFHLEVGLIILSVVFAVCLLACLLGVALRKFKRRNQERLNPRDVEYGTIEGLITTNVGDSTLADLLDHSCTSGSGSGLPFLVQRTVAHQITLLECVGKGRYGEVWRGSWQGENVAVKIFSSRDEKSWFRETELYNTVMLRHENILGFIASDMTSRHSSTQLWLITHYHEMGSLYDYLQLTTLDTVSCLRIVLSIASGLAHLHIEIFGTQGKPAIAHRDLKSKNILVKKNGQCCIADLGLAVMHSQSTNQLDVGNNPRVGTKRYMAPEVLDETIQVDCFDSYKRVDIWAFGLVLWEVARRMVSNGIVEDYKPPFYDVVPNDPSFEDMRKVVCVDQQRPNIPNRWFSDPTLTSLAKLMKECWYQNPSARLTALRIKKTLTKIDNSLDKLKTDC
How it was run: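 GST-tagged ALK2 R206H (2-5 nM) mixed with Eu-anti-GST antibody (4-10 nM), Kinase Tracer 178 (50 nM, near its Kd) and compound titration (1% DMSO) in Kinase Buffer A, 30 min at room temperature. Tracer displacement read as TR-FRET ratio, normalized to controls; IC50 from 4-parameter fit.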

human ALK2 R206H = target: T2, human ALK2 R206H (Homo sapiens, UniProt Q04771, R206H); assay: Cell-based ALK2-R206H cell activity assay (Smad1-Ser463/Ser465 phosphorylation by AlphaLISA in HEK293-ALK2-R206H cells); conditions: phospho-Smad1 AlphaLISA, read-out: Cell Line (Cell Assay, IC50 class)
T2 construct: expressed in transfected cells; host or cells: HEK293 (ATCC CRL1573), lentivirus transduction, blasticidin selection
T2 sequence (Q04771 21-509 R206H): T1 sequence (Q04771 21-509 R206H)
How it was run: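 HEK293 stable line expressing human ALK2 R206H with C-terminal FLAG, plated overnight in serum-free medium. Cells were treated 2-3 h with compound over 10 3-fold doses, top 10 μM or 1 μM, in duplicate. Phospho-Smad1 Ser463/465 in lysate was read by AlphaLISA; IC50 was normalised to DMSO (0%) and 1 μM LDN193189 (100%).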

Row | SMILES | IC50 [1] | IC50 (human ALK2 R206H)
1 | CS(=O)(=O)c1ccc(-c2cc3c(N4CCN(C(=O)C5CC5)CC4)ccnc3[nH]2)cc1 [Compound 307] | ≤ 10 nM | 100 to 500 nM
2 | CC(=O)N1CCc2sc(-c3[nH]c4nccc(N5CCN(C(=O)OC6COC6)CC5)c4c3C#N)nc2C1 [Compound 470] | ≤ 10 nM | ≤ 100 nM
3 | Cc1nn(C(C)C)cc1-c1cc2c(N3CCN(C(=O)[C@H]4CC[C@H](C#N)CC4)CC3)ccnc2[nH]1 [Compound 422] | ≤ 10 nM | ≤ 100 nM
4 | Cn1cnc(-c2[nH]c3nccc(N4CCN(C(=O)O[C@H]5C[C@H](F)C5)CC4)c3c2C#N)c1 [Compound 297] | ≤ 10 nM | ≤ 100 nM
5 | CC(C)n1cnc(-c2cc3c(N4CCN(C(=O)OC5COC5)CC4)ccnc3[nH]2)c1 [Compound 231] | ≤ 10 nM | ≤ 100 nM
6 | CCOC(=O)N1CCN(c2ccnc3[nH]c(-c4ccc(C#N)cc4)cc23)CC1 [Compound 53] | ≤ 10 nM | ≤ 100 nM
7 | Cc1nc(-c2[nH]c3nccc(N4CCN(C(=O)OCC(F)F)CC4)c3c2C#N)cn1C [Compound 321] | ≤ 10 nM | ≤ 100 nM
8 | CCOC(=O)N1CCN(c2ccnc3[nH]c(-c4cnn(C)c4C(F)F)cc23)CC1 [Compound 191] | ≤ 10 nM | 100 to 500 nM
9 | CCOC(=O)N1CCN(c2ccnc3[nH]c(-c4ccc(C5(OC)CCOCC5)cc4C#N)cc23)CC1 [Compound 455] | ≤ 10 nM | ≤ 100 nM
10 | CCOC(=O)N1CCN(c2ccnc3[nH]c(-c4cccc(C)n4)cc23)CC1 [Compound 26] | ≤ 10 nM | 100 to 500 nM
11 | CCOC(=O)N1CCN(c2ccnc3[nH]c(-c4ncc(C)s4)cc23)CC1 [Compound 49] | ≤ 10 nM | 100 to 500 nM
12 | O=C(OC1COC1)N1CCN(c2ccnc3[nH]c(-c4cn(C(F)F)cn4)cc23)CC1 [Compound 280] | ≤ 10 nM | ≤ 100 nM
13 | Cc1nc(-c2[nH]c3nccc(N4CCN(C(=O)OCC(F)F)CC4)c3c2Cl)cn1C [Compound 363] | ≤ 10 nM | ≤ 100 nM
14 | Cn1cc(-c2cc3c(N4CCN(C(=O)C5CCCCC5)CC4)ccnc3[nH]2)cn1 [Compound 134] | ≤ 10 nM | 100 to 500 nM
15 | Cn1cc(-c2cc3c(N4CCN(C(=O)[C@H]5CC[C@H](C#N)CC5)CC4)ccnc3[nH]2)cn1 [Compound 278] | ≤ 10 nM | ≤ 100 nM
16 | Cn1cnc(-c2[nH]c3nccc(N4CCN(C(=O)OC5COC5)CC4)c3c2Cl)c1 [Compound 274] | ≤ 10 nM | ≤ 100 nM
17 | CC#Cc1c(-c2cnn(C)c2)[nH]c2nccc(N3CCN(C(=O)OCC)CC3)c12 [Compound 132] | ≤ 10 nM | ≤ 100 nM
18 | O=C(C1CC1)N1CCN(c2ccnc3[nH]c(-c4ccc(C5(O)COC5)cc4)cc23)CC1 [Compound 283] | ≤ 10 nM | 100 to 500 nM
19 | CCOC(=O)N1CCN(c2ccnc3[nH]c(-c4csc(C)n4)cc23)CC1 [Compound 46] | ≤ 10 nM | ≤ 100 nM
20 | O=C(OC1COC1)N1CCN(c2ccnc3[nH]c(-c4cccnc4)cc23)CC1 [Compound 67] | ≤ 10 nM | 100 to 500 nM
21 | Cn1cc(-c2[nH]c3nccc(N4CCN(C(=O)O[C@H]5CCC5(F)F)CC4)c3c2C#N)cn1 [Compound 367] | ≤ 10 nM | ≤ 100 nM
22 | Cc1nc(-c2[nH]c3nccc(N4CCN(C(=O)OC5CCC5(F)F)CC4)c3c2C#N)cn1C (centres unmarked) [Compound 413] | ≤ 10 nM | ≤ 100 nM
23 | Cn1cc(-c2[nH]c3nccc(N4CCN(C(=O)[C@H]5C[C@H](C#N)C5)CC4)c3c2Cl)cn1 [Compound 299] | ≤ 10 nM | ≤ 100 nM
24 | O=C(C1CC1)N1CCN(c2ccnc3[nH]c(-c4ccc(N5CCN(C6COC6)CC5)cc4)cc23)CC1 [Compound 452] | ≤ 10 nM | ≤ 100 nM
25 | O=C(OC1COC1)N1CCN(c2ccnc3[nH]c(-c4cnn(C5CC5)c4)cc23)CC1 [Compound 219] | ≤ 10 nM | ≤ 100 nM
26 | CCn1cc(-c2cc3c(N4CCN(C(=O)C5CC5)CC4)ccnc3[nH]2)cn1 [Compound 23] | ≤ 10 nM | 100 to 500 nM
27 | CCOC(=O)N1CCN(c2ccnc3[nH]c(-c4csc(C#N)c4)cc23)CC1 [Compound 86] | ≤ 10 nM | ≤ 100 nM
28 | O=C(O[C@H]1C[C@H](F)C1)N1CCN(c2ccnc3[nH]c(-c4nc5c(s4)COCC5)cc23)CC1 [Compound 416] | ≤ 10 nM | ≤ 100 nM

Row | SMILES | IC50 [1] | IC50 (human ALK2 R206H)
29 | CC1(c2ccc(-c3cc4c(N5CCN(C(=O)C6CC6)CC5)ccnc4[nH]3)cc2)COC1 [Compound 271] | ≤ 10 nM | ≤ 100 nM
30 | CC#Cc1c(-c2cn(C)c(C)n2)[nH]c2nccc(N3CCN(C(=O)OC4COC4)CC3)c12 [Compound 347] | ≤ 10 nM | ≤ 100 nM
31 | O=C(OC1COC1)N1CCN(c2ccnc3[nH]c(-c4cn5c(n4)COCC5)cc23)CC1 [Compound 302] | ≤ 10 nM | ≤ 100 nM
32 | CCCOC(=O)N1CCN(c2ccnc3[nH]c(-c4cnn(C)c4)c(Cl)c23)CC1 [Compound 187] | ≤ 10 nM | ≤ 100 nM
33 | COC1(c2ccc(-c3cc4c(N5CCN(C(=O)OC6COC6)CC5)ccnc4[nH]3)nc2)CCN(C[C@H](C)F)CC1 [Compound 478] | ≤ 10 nM | ≤ 100 nM
34 | CC(C)N1CCN(c2ccc(-c3cc4c(N5CCN(C(=O)C6CC6)CC5)ccnc4[nH]3)cc2)CC1 [Compound 438] | ≤ 10 nM | ≤ 100 nM
35 | CC(C)n1cnc(-c2[nH]c3nccc(N4CCN(C(=O)OC5COC5)CC4)c3c2C#N)c1 [Compound 350] | ≤ 10 nM | ≤ 100 nM
36 | Cn1ccc(-c2cc3c(N4CCN(C(=O)OC5COC5)CC4)ccnc3[nH]2)n1 [Compound 91] | ≤ 10 nM | 100 to 500 nM
37 | O=C(C1CC1)N1CCN(c2ccnc3[nH]c(-c4ccc(C5(O)CCC5)cc4)cc23)CC1 [Compound 272] | ≤ 10 nM | ≤ 100 nM
38 | Cn1cnc(-c2cc3c(N4CCN(C(=O)OC5COC5)CC4)ccnc3[nH]2)c1 [Compound 89] | ≤ 10 nM | ≤ 100 nM
39 | Cn1cc(-c2cc3c(N4CCN(C(=O)[C@@H]5C[C@H]5F)CC4)ccnc3[nH]2)cn1 [Compound 37] | ≤ 10 nM | ≤ 100 nM
40 | Cn1cc(-c2cc3c(N4CCN(C(=O)CC5CCCC5)CC4)ccnc3[nH]2)cn1 [Compound 135] | ≤ 10 nM | 100 to 500 nM
41 | COC(=O)COc1ccc(-c2cc3c(N4CCN(C(=O)C5CC5)CC4)ccnc3[nH]2)cc1 [Compound 348] | ≤ 10 nM | > 500 nM
42 | CC(C)n1cc(-c2cc3c(N4CCN(C(=O)C5CC5)CC4)ccnc3[nH]2)cn1 [Compound 65] | ≤ 10 nM | ≤ 100 nM
43 | Cc1nc(-c2cc3c(N4CCN(C(=O)O[C@@H](C)CF)CC4)ccnc3[nH]2)cs1 [Compound 189] | ≤ 10 nM | ≤ 100 nM
44 | Cn1cc(-c2[nH]c3nccc(N4CCN(C(=O)O[C@H]5C[C@H](F)C5)CC4)c3c2F)cn1 [Compound 267] | ≤ 10 nM | ≤ 100 nM
45 | Cn1cc(-c2cc3c(N4CCN(C(=O)O[C@H]5CC(F)(F)C5(F)F)CC4)ccnc3[nH]2)cn1 [Compound 401] | ≤ 10 nM | ≤ 100 nM
46 | CC(C)CC(=O)N1CCN(c2ccnc3[nH]c(-c4cnn(C)c4)cc23)CC1 [Compound 32] | 10 to 50 nM | 100 to 500 nM
47 | Cn1cnc(-c2cc3c(N4CCN(C(=O)O[C@H]5CCC5(F)F)CC4)ccnc3[nH]2)c1 [Compound 265] | ≤ 10 nM | ≤ 100 nM
48 | CCOC(=O)N1CCN(c2ccnc3[nH]c(-c4cnn(C)c4)c(C)c23)CC1 [Compound 38] | ≤ 10 nM | ≤ 100 nM
49 | CC(C)COC(=O)N1CCN(c2ccnc3[nH]c(-c4cnn(C)c4)cc23)CC1 [Compound 97] | ≤ 10 nM | 100 to 500 nM
50 | Cn1ncc(-c2cc3c(N4CCN(C(=O)OC5COC5)CC4)ccnc3[nH]2)c1C(F)F [Compound 336] | ≤ 10 nM | 100 to 500 nM
51 | CN1CCN(c2ccc(-c3cc4c(N5CCN(C(=O)C6CC6)CC5)ccnc4[nH]3)cc2)CC1 [Compound 380] | ≤ 10 nM | ≤ 100 nM
52 | O=C(OC1COC1)N1CCN(c2ccnc3[nH]c(-c4cscn4)cc23)CC1 [Compound 112] | ≤ 10 nM | ≤ 100 nM
53 | Cn1cc(-c2[nH]c3nccc(N4CCN(C(=O)O[C@@H]5CCOC5)CC4)c3c2Cl)cn1 [Compound 332] | ≤ 10 nM | 100 to 500 nM
54 | Cc1nc(-c2cc3c(N4CCN(C(=O)OC5COC5)CC4)ccnc3[nH]2)cs1 [Compound 170] | ≤ 10 nM | ≤ 100 nM
55 | Cc1nc(-c2cc3c(N4CCN(C(=O)OC5CC(F)(F)C5)CC4)ccnc3[nH]2)cn1C [Compound 325] | ≤ 10 nM | ≤ 100 nM
